Experimental findings from US9687479B2, “Multisubstituted aromatic compounds as serine protease inhibitors” (VERSEON CORPORATION, priority 2013, dated 2017) are described below.

In one assay the target is Human thrombin (Homo sapiens (Human), UniProt P00734). Kind of assay: Thrombin protease activity inhibition assay (chromogenic substrate S-2238). In kind it is biochemical. The following applies: 3 nM thrombin, 125 μM S-2238, 10 min pre-incubation, RT. In a few lines:
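Ten-point, three-fold serial dilutions of compound tested against 3 nM enzyme at RT in Tris buffer (0.05 M, pH 7.4) with 0.015 M NaCl and 0.01% PEG-8000.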

A further assay deals with Human KLKB1 (Homo sapiens (Human), UniProt P03952). Kind of assay: KLKB1 kallikrein activity inhibition assay (chromogenic substrate S-2302). Type of assay: biochemical. The method, then:
The KLKB1 kallikrein activity reported herein (e.g., Tables B, C, and D) was obtained as follows. Human KLKB1 protein was obtained from Enzyme Research Labs. […] KLKB1 was assayed in buffer containing 0.05 M Tris (pH 7.4), 0.01 M NaCl and 0.2% w/v PEG-8000. The final concentration of enzyme used was 3 nM KLKB1. […] All assays were performed in 96-well microtiter plates at room temperature (RT). […] Inhibitor IC50 values were determined by adding test compound as ten point, three-fold serial dilutions in buffer solution, as known in the art. The plate was read at 10 minutes after substrate addition. The IC50 was calculated by plotting the percent (%) inhibition against compound concentration and fitting the data to a constrained four parameter sigmoidal curve, as known in the art.

Where [1] appears, read: 3 nM KLKB1, 250 μM S-2302, 10 min pre-incubation, RT.

Chain of Human KLKB1 (P03952 391-638 limits assumed): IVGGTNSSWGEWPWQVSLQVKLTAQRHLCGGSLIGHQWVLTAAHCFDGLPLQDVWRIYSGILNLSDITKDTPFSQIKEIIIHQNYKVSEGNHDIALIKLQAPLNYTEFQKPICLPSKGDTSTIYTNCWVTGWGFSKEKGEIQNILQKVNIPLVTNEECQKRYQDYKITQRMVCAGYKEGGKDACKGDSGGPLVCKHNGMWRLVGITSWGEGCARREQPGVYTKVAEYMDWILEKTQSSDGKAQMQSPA
Chain of Human KLKB1 (P03952 20-390 partner limits assumed): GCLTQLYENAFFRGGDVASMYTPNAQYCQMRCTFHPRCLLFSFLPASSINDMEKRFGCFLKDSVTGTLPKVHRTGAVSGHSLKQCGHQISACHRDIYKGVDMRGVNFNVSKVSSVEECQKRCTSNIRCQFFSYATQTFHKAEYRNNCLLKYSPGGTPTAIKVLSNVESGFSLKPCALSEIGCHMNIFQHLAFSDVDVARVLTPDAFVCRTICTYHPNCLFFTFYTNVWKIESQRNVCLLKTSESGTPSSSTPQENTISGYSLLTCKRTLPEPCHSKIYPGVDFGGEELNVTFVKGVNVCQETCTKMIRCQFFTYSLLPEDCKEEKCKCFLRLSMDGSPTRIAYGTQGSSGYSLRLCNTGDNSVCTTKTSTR

As for `O=C(c1ccoc1)n1nc(-c2cccn(Cc3cccs3)c2=O)cc1NCc1ccc(Cl)s1` [Cmpd 5, 3-(5-[(5-chlorothiophen-2-yl)methyl]amino-1-[(furan-3-yl)carbonyl]-1H-pyrazol-3-yl)-1-(thiophen-2-ylmethyl)-1,2-dihydropyridin-2-one], the values for the IC50 on Human thrombin and against Human KLKB1 (Table B) were less than 0.1 µM and 1 to 10 µM, respectively.

Take `COc1ccc(C(=O)n2nc(-c3cccn(Cc4ccccc4)c3=O)cc2NCc2ccc(Cl)s2)c(OC)c1` [Cmpd 46, 1-benzyl-3-(5-[(5-chlorothiophen-2-yl)methyl]amino-1-[(2,4-dimethoxyphenyl)carbonyl]-1H-pyrazol-3-yl)-1,2-dihydropyridin-2-one]: the concentration for half-maximal inhibition (IC50) (usually the concentration that inhibits the measured activity by half) against Human thrombin is less than 0.1 µM; against Human KLKB1 (Table B) it was 10 to 100 µM.

Take `CC1(C(=O)n2nc(-c3cccn(Cc4ccccc4)c3=O)cc2NCc2ccc(Cl)s2)CCOCC1` [Cmpd 48, 1-benzyl-3-(5-[(5-chlorothiophen-2-yl)methyl]amino-1-[(4-methyloxan-4-yl)carbonyl]-1H-pyrazol-3-yl)-1,2-dihydropyridin-2-one]: the results for the IC50 on Human thrombin and against Human KLKB1 (Table B) were less than 0.1 µM and more than 100 µM, respectively.

Take `O=C(c1ccco1)n1nc(-c2cccn(Cc3ccccc3)c2=O)cc1NCc1ccc(Cl)s1` [Cmpd 49, 1-benzyl-3-(5-[(5-chlorothiophen-2-yl)methyl]amino-1-[(furan-2-yl)carbonyl]-1H-pyrazol-3-yl)-1,2-dihydropyridin-2-one]: the concentration for half-maximal inhibition (IC50) against Human thrombin is less than 0.1 µM; against Human KLKB1 (Table B), 0.1 to 1 µM.

As to `O=C(c1ccoc1)n1nc(-c2cccn(Cc3ccccc3)c2=O)cc1NCc1ccc(Cl)s1` [Cmpd 50, 1-benzyl-3-(5-[(5-chlorothiophen-2-yl)methyl]amino-1-[(furan-3-yl)carbonyl]-1H-pyrazol-3-yl)-1,2-dihydropyridin-2-one], the IC50 against Human thrombin is less than 0.1 µM; against Human KLKB1 (Table B), 10 to 100 µM.

Turning to `O=C(c1cccs1)n1nc(-c2cccn(Cc3ccccc3)c2=O)cc1NCc1ccc(Cl)s1` [Cmpd 51, 1-benzyl-3-(5-[(5-chlorothiophen-2-yl)methyl]amino-1-[(thiophen-2-yl)carbonyl]-1H-pyrazol-3-yl)-1,2-dihydropyridin-2-one], the IC50 is less than 0.1 µM on Human thrombin and more than 100 µM at Human KLKB1 (Table B).

With `O=C(c1ccsc1)n1nc(-c2cccn(Cc3ccccc3)c2=O)cc1NCc1ccc(Cl)s1` [Cmpd 52, 1-benzyl-3-(5-[(5-chlorothiophen-2-yl)methyl]amino-1-[(thiophen-3-yl)carbonyl]-1H-pyrazol-3-yl)-1,2-dihydropyridin-2-one], the IC50 against Human thrombin is less than 0.1 µM; against Human KLKB1 (Table B) it was 0.1 to 1 µM.

In the case of `O=C(c1ccc(N2CCOCC2)cc1)n1nc(-c2cccn(Cc3ccccc3)c2=O)cc1NCc1ccc(Cl)s1` [Cmpd 53, 1-benzyl-3-(5-[(5-chlorothiophen-2-yl)methyl]amino-1-[4-(morpholin-4-yl)phenyl]carbonyl-1H-pyrazol-3-yl)-1,2-dihydropyridin-2-one], the IC50 against Human thrombin was less than 0.1 µM; against Human KLKB1 (Table B), more than 100 µM.

Regarding `COCCn1cccc(-c2cc(NCc3ccc(Cl)s3)n(C(=O)c3ccccc3)n2)c1=O` [Cmpd 62, 3-(1-benzoyl-5-[(5-chlorothiophen-2-yl)methyl]amino-1H-pyrazol-3-yl)-1-(2-methoxyethyl)-1,2-dihydropyridin-2-one], the IC50 is less than 0.1 µM at Human thrombin and 1 to 10 µM against Human KLKB1 (Table B).

For `Cn1cccc(-c2cc(NCc3ccc(Cl)s3)n(C(=O)c3ccccc3)n2)c1=O` [Cmpd 73, 3-(1-benzoyl-5-[(5-chlorothiophen-2-yl)methyl]amino-1H-pyrazol-3-yl)-1-methyl-1,2-dihydropyridin-2-one], the IC50 was less than 0.1 µM against Human thrombin and more than 100 µM against Human KLKB1 (Table B).

`CC(C)(C)C(=O)n1nc(-c2cccn(Cc3ccco3)c2=O)cc1NCc1ccc(Cl)s1` [Cmpd 77, 3-(5-[(5-chlorothiophen-2-yl)methyl]amino-1-(2,2-dimethylpropanoyl)-1H-pyrazol-3-yl)-1-(furan-2-ylmethyl)-1,2-dihydropyridin-2-one]: the figures for the IC50 against Human thrombin and against Human KLKB1 (Table B) were less than 0.1 µM and more than 100 µM, respectively.

Consider `COCCn1cccc(-c2cc(NCc3ccc(Cl)s3)n(C(=O)C(C)(C)CO)n2)c1=O` [Cmpd 92, 3-(5-[(5-chlorothiophen-2-yl)methyl]amino-1-(3-hydroxy-2,2-dimethylpropanoyl)-1H-pyrazol-3-yl)-1-(2-methoxyethyl)-1,2-dihydropyridin-2-one], for which the IC50 against Human thrombin was less than 0.1 µM; at Human KLKB1 (Table B) it was 10 to 100 µM.

As for `CC(C)(CO)C(=O)n1nc(-c2cccn(Cc3ccco3)c2=O)cc1NCc1ccc(Cl)s1` [Cmpd 93, 3-(5-[(5-chlorothiophen-2-yl)methyl]amino-1-(3-hydroxy-2,2-dimethylpropanoyl)-1H-pyrazol-3-yl)-1-(furan-2-ylmethyl)-1,2-dihydropyridin-2-one], the IC50 against Human thrombin is less than 0.1 µM; at Human KLKB1 (Table B), 10 to 100 µM.

Consider `CC(C)(CO)C(=O)n1nc(-c2cccn(Cc3cccnc3)c2=O)cc1NCc1ccc(Cl)s1` [Cmpd 94, 3-(5-[(5-chlorothiophen-2-yl)methyl]amino-1-(3-hydroxy-2,2-dimethylpropanoyl)-1H-pyrazol-3-yl)-1-(pyridin-3-ylmethyl)-1,2-dihydropyridin-2-one], for which the IC50 against Human thrombin is less than 0.1 µM; at Human KLKB1 (Table B), 1 to 10 µM.

For the compound `COCC(C)(C)C(=O)n1nc(-c2cccn(Cc3ccco3)c2=O)cc1NCc1ccc(Cl)s1` [Cmpd 98, 3-(5-[(5-chlorothiophen-2-yl)methyl]amino-1-(3-methoxy-2,2-dimethylpropanoyl)-1H-pyrazol-3-yl)-1-(furan-2-ylmethyl)-1,2-dihydropyridin-2-one], the results for the concentration for half-maximal inhibition (IC50) against Human thrombin and at Human KLKB1 (Table B) were less than 0.1 µM and more than 100 µM, respectively.

Take `COCC(C)(C)C(=O)n1nc(-c2cccn(Cc3cccnn3)c2=O)cc1NCc1ccc(Cl)s1` [Cmpd 100, 3-(5-[(5-chlorothiophen-2-yl)methyl]amino-1-(3-methoxy-2,2-dimethylpropanoyl)-1H-pyrazol-3-yl)-1-(pyridazin-3-ylmethyl)-1,2-dihydropyridin-2-one]: the IC50 against Human thrombin is less than 0.1 µM; on Human KLKB1 (Table B) it was 1 to 10 µM.

Turning to `COCC(C)(C)C(=O)n1nc(-c2cccn(Cc3ccccn3)c2=O)cc1NCc1ccc(Cl)s1` [Cmpd 101, 3-(5-[(5-chlorothiophen-2-yl)methyl]amino-1-(3-methoxy-2,2-dimethylpropanoyl)-1H-pyrazol-3-yl)-1-(pyridin-2-ylmethyl)-1,2-dihydropyridin-2-one], the 50% inhibitory concentration (IC50) was less than 0.1 µM against Human thrombin and 10 to 100 µM on Human KLKB1 (Table B).

In the case of `COCC(C)(C)C(=O)n1nc(-c2cccn(Cc3cccnc3)c2=O)cc1NCc1ccc(Cl)s1` [Cmpd 102, 3-(5-[(5-chlorothiophen-2-yl)methyl]amino-1-(3-methoxy-2,2-dimethylpropanoyl)-1H-pyrazol-3-yl)-1-(pyridin-3-ylmethyl)-1,2-dihydropyridin-2-one], the IC50 was less than 0.1 µM at Human thrombin and 10 to 100 µM against Human KLKB1 (Table B).

In the case of `O=C(NCc1ccc2[nH]cc(Cl)c2c1)[C@H]1CC(=O)N(Cc2cccc(Cl)c2)C1` [Cmpd 418, (3S)-N-[(3-chloro-1H-indol-5-yl)methyl]-1-[(3-chlorophenyl)methyl]-5-oxopyrrolidine-3-carboxamide], the IC50 on Human KLKB1 (setting [1]) was more than 100 µM.

For `Cc1cc(N(C)c2ccccc2F)nc(N[C@@H]2CCc3c(N)cccc3C2)n1` [Cmpd 419, 2-N-[(2R)-5-amino-1,2,3,4-tetrahydronaphthalen-2-yl]-4-N-(2-fluorophenyl)-4-N,6-dimethylpyrimidine-2,4-diamine], the IC50 at Human KLKB1 (setting [1]) is more than 100 µM.

On to `Cc1cc(N(C)c2cccc(F)c2)nc(N[C@@H]2CCc3c(N)cccc3C2)n1` [Cmpd 420, 2-N-[(2R)-5-amino-1,2,3,4-tetrahydronaphthalen-2-yl]-4-N-(3-fluorophenyl)-4-N,6-dimethylpyrimidine-2,4-diamine], for which the IC50 on Human KLKB1 (setting [1]) is more than 100 µM.

At Human KLKB1 (setting [1]), `Cc1cc(N(C)c2ccc(F)cc2)nc(N[C@@H]2CCc3c(N)cccc3C2)n1` [Cmpd 421, 2-N-[(2R)-5-amino-1,2,3,4-tetrahydronaphthalen-2-yl]-4-N-(4-fluorophenyl)-4-N,6-dimethylpyrimidine-2,4-diamine] displayed an IC50 of more than 100 µM.

Take `Cc1cc(N(C)c2ccccc2)nc(N[C@H]2CCc3c(N)cccc3C2)n1` [Cmpd 422, 2-N-[(2S)-5-amino-1,2,3,4-tetrahydronaphthalen-2-yl]-4-N,6-dimethyl-4-N-phenylpyrimidine-2,4-diamine]: on Human KLKB1 (setting [1]), the IC50 is more than 100 µM.

`Cc1cc(N(C)c2ccccc2Cl)nc(N[C@H]2CCc3c(N)cccc3C2)n1` [Cmpd 423, 2-N-[(2S)-5-amino-1,2,3,4-tetrahydronaphthalen-2-yl]-4-N-(2-chlorophenyl)-4-N,6-dimethylpyrimidine-2,4-diamine] showed an IC50 against Human KLKB1 (setting [1]) of 10 to 100 µM.

In turn, `Cc1cc(N(C)c2cccc(Cl)c2)nc(N[C@H]2CCc3c(N)cccc3C2)n1` [Cmpd 424, 2-N-[(2S)-5-amino-1,2,3,4-tetrahydronaphthalen-2-yl]-4-N-(3-chlorophenyl)-4-N,6-dimethylpyrimidine-2,4-diamine] gave an IC50 against Human KLKB1 (setting [1]) of more than 100 µM.

On Human KLKB1 (setting [1]), `Cc1cc(N(C)c2ccc(Cl)cc2)nc(N[C@H]2CCc3c(N)cccc3C2)n1` [Cmpd 425, 2-N-[(2S)-5-amino-1,2,3,4-tetrahydronaphthalen-2-yl]-4-N-(4-chlorophenyl)-4-N,6-dimethylpyrimidine-2,4-diamine] had an IC50 of more than 100 µM.
